Data on 16 compounds can be found in PubChem BioAssay AID192 (DTP/NCI, 2004).

Values joined by “and” are separate entries in the source; they are usually repeats but may differ in a detail not shown here. Equal entries are not always repeated. Inconclusive results and toxic doses are left out.

The test system of the experiment is BDF1 mice, B16 melanoma ip, median survival T/C. The experiment can be described thus: NCI In Vivo Anticancer Drug Screen. Data for tumor model B16 Melanoma (intraperitoneal) in B6D2F1 (BDF1) mice. The note with it: endpoint: median survival time, higher = longer survival. The gist of the method:
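Values are ratios of treated (T) to vehicle-control (C) measurements of survival or tumor size in tumor-bearing mice.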

[1] abbreviates: dose: 100.0 mg/kg/injection, schedule: Q01DX009 (ip), vehicle: Klucel (hydroxypropylcellulose) (HPC).
Where [2] appears, read: dose: 200.0 mg/kg/injection, schedule: Q01DX009 (ip), vehicle: Klucel (hydroxypropylcellulose) (HPC).
Setting [3] is: dose: 400.0 mg/kg/injection, schedule: Q01DX009 (ip), vehicle: Klucel (hydroxypropylcellulose) (HPC).
Setting [4] is: dose: 25.0 mg/kg/injection, schedule: Q01DX009 (ip), vehicle: Klucel (hydroxypropylcellulose) (HPC).
Setting [5] is: dose: 50.0 mg/kg/injection, schedule: Q01DX009 (ip), vehicle: Klucel (hydroxypropylcellulose) (HPC).
[6] abbreviates: dose: 50.0 mg/kg/injection, schedule: Q01DX009 (ip), vehicle: saline with Tween-80.
The mark [7] stands for this setting: dose: 100.0 mg/kg/injection, schedule: Q01DX009 (ip), vehicle: saline with Tween-80.
Setting [8] is: dose: 12.5 mg/kg/injection, schedule: Q01DX009 (ip), vehicle: Klucel (hydroxypropylcellulose) (HPC).
Where [9] appears, read: dose: 6.25 mg/kg/injection, schedule: Q01DX009 (ip), vehicle: water.
Where [10] appears, read: dose: 12.5 mg/kg/injection, schedule: Q01DX009 (ip), vehicle: water.

As to `COc1cccc2c1C(=O)c1c(O)c3c(c(O)c1C2=O)C[C@@](O)(C(=O)COC(=O)CCCCC(=O)O)C[C@@H]3OC1CC(NC(=O)C(F)(F)F)C(O)C(C)O1` (some centres not stated), the T/C was 175 % of control (dose: 18.75 mg/kg/injection, schedule: Q01DX001 (ip), vehicle: other); 168 % of control and 205 % of control (dose: 37.5 mg/kg/injection, schedule: Q01DX001 (ip), vehicle: other); 205 % of control and 271 % of control (dose: 75.0 mg/kg/injection, schedule: Q01DX001 (ip), vehicle: other); 150 % of control (dose: 150.0 mg/kg/injection, schedule: Q01DX001 (ip), vehicle: other).
For the compound `Oc1ccc(SCc2ccc(NCc3ccccc3)cc2)cc1`, the T/C (dose: 12.5 mg/kg/injection, schedule: Q01DX009 (ip), vehicle: other) was 92 % of control; the T/C (dose: 12.5 mg/kg/injection, schedule: Q01DX009 (ip), vehicle: saline + alcohol) is 105 % of control; the T/C (dose: 25.0 mg/kg/injection, schedule: Q01DX009 (ip), vehicle: other) was 97 % of control; the T/C (dose: 25.0 mg/kg/injection, schedule: Q01DX009 (ip), vehicle: saline + alcohol) was 103 % of control; the T/C (dose: 50.0 mg/kg/injection, schedule: Q01DX009 (ip), vehicle: other) is 102 % of control; the T/C (dose: 50.0 mg/kg/injection, schedule: Q01DX009 (ip), vehicle: saline + alcohol) is 99 % of control. Besides, the T/C (dose: 100.0 mg/kg/injection, schedule: Q01DX009 (ip), vehicle: other) was 104 % of control; the T/C (dose: 100.0 mg/kg/injection, schedule: Q01DX009 (ip), vehicle: saline + alcohol) was 107 % of control; the T/C (dose: 200.0 mg/kg/injection, schedule: Q01DX009 (ip), vehicle: other) was 102 % of control; the T/C (dose: 200.0 mg/kg/injection, schedule: Q01DX009 (ip), vehicle: saline + alcohol) was 103 % of control; the T/C (dose: 400.0 mg/kg/injection, schedule: Q01DX009 (ip), vehicle: other) is 96 % of control; the T/C (dose: 400.0 mg/kg/injection, schedule: Q01DX009 (ip), vehicle: saline + alcohol) was 99 % of control.
For `ClCc1c2ccccc2c(CCl)c2ccccc12`, the T/C was 114 % of control (dose: 0.75 mg/kg/injection, schedule: Q01DX009 (ip), vehicle: Klucel (hydroxypropylcellulose) (HPC)) and 119 % of control (dose: 1.5 mg/kg/injection, schedule: Q01DX009 (ip), vehicle: Klucel (hydroxypropylcellulose) (HPC)).
As to `CCOc1ccc(NC(=O)c2ccccc2Cl)cc1`, the T/C was 93 % of control under setting [1], 112 % of control under setting [2] and 93 % of control under setting [3].
As for `O=C(COc1ccc(Cl)cc1)Nc1cccnc1`, the T/C reads like this: under setting [4], 90 % of control; under setting [5], 94 % of control.
In the case of `C[C@@H]1CC2=CC(=O)CC[C@@H]2[C@H]2CC[C@@]3(C)[C@@H](CC[C@]3(C)O)[C@@H]21`, the T/C (dose: 25.0 mg/kg/injection, schedule: Q01DX009 (ip), vehicle: saline with Tween-80) is 102 % of control; the T/C under setting [6] was 92 % of control and 113 % of control; the T/C under setting [7] was 97 % of control and 108 % of control.
For `N=[N+]=CC(=O)OCC(N)C(=O)O` (configuration not stated), the T/C (dose: 1.5 mg/kg/injection, schedule: Q01DX009 (ip), vehicle: other) is 100 % of control; the T/C (dose: 3.13 mg/kg/injection, schedule: Q01DX009 (ip), vehicle: saline) is 100 % of control; the T/C (dose: 5.0 mg/kg/injection, schedule: Q04DX003 (ip), vehicle: water) is 102 % of control; the T/C (dose: 6.25 mg/kg/injection, schedule: Q01DX009 (ip), vehicle: saline) is 102 % of control; the T/C (dose: 10.0 mg/kg/injection, schedule: Q04DX003 (ip), vehicle: other) is 100 % of control; the T/C (dose: 12.5 mg/kg/injection, schedule: Q01DX009 (ip), vehicle: saline) is 105 % of control. Moreover, the T/C reads like this: (dose: 15.0 mg/kg/injection, schedule: Q04DX003 (ip), vehicle: water) 115 % of control; (dose: 20.0 mg/kg/injection, schedule: Q04DX003 (ip), vehicle: other) 100 % of control; (dose: 375.0 micrograms/kg/injection, schedule: Q01DX009 (ip), vehicle: water) 118 % of control; (dose: 750.0 micrograms/kg/injection, schedule: Q01DX009 (ip), vehicle: water) 107 % of control.
With `O=C(NC1CCCCC1)Oc1ccccc1-c1ccccc1`, the T/C is, setting by setting: under setting [1], 88 % of control; under setting [3], 100 % of control.
For `Nc1c([N+](=O)[O-])ccc2ccccc12`, the T/C reads like this: (dose: 100.0 mg/kg/injection, schedule: Q04DX003 (ip), vehicle: saline with Tween-80) 108 % of control; (dose: 200.0 mg/kg/injection, schedule: Q04DX003 (ip), vehicle: saline with Tween-80) 91 % of control; (dose: 400.0 mg/kg/injection, schedule: Q04DX003 (ip), vehicle: saline with Tween-80) 100 % of control.
As for `Cc1cccc(C)c1NC(=O)c1cccc(C(=O)Nc2c(C)cccc2C)c1`, the T/C runs as follows: under setting [1], 100 % of control; under setting [2], 94 % of control; under setting [3], 91 % of control.
Regarding `C=CCNc1ccc(C)cc1`, the T/C was 105 % of control under setting [8], 96 % of control under setting [4], 88 % of control under setting [5] and 91 % of control under setting [1].
Take `CCN(CC)CCCC(C)NC(C)CCCN(CC)CC` (configuration not stated): the T/C is 101 % of control (dose: 6.25 mg/kg/injection, schedule: Q01DX009 (ip), vehicle: Klucel (hydroxypropylcellulose) (HPC)); 98 % of control under setting [9]; 95 % of control under setting [8]; 100 % of control under setting [10].
Turning to `CN1C(=O)NC(c2ccc(Cl)cc2)(c2ccc(Cl)cc2)C1=O`, the T/C was 100 % of control (dose: 0.78 mg/kg/injection, schedule: Q01DX009 (ip), vehicle: water); 95 % of control (dose: 1.56 mg/kg/injection, schedule: Q01DX009 (ip), vehicle: water); 100 % of control (dose: 3.12 mg/kg/injection, schedule: Q01DX009 (ip), vehicle: water); 100 % of control and 112 % of control under setting [9]; 100 % of control (dose: 12.5 mg/kg/injection, schedule: Q01DX009 (ip), vehicle: distilled water + Tween-80); 99 % of control and 102 % of control under setting [10]. For the same compound, the T/C by setting is: (dose: 25.0 mg/kg/injection, schedule: Q01DX009 (ip), vehicle: distilled water + Tween-80) 105 % of control; (dose: 25.0 mg/kg/injection, schedule: Q01DX009 (ip), vehicle: water) 101 % of control and 105 % of control; (dose: 50.0 mg/kg/injection, schedule: Q01DX009 (ip), vehicle: distilled water + Tween-80) 99 % of control; (dose: 100.0 mg/kg/injection, schedule: Q01DX009 (ip), vehicle: distilled water + Tween-80) 116 % of control; (dose: 200.0 mg/kg/injection, schedule: Q01DX009 (ip), vehicle: distilled water + Tween-80) 98 % of control.
Regarding `O=c1cc(O)c1=O`, the T/C by setting is: (dose: 0.78 mg/kg/injection, schedule: Q01DX009 (ip), vehicle: saline with Tween-80) 106 % of control; (dose: 1.56 mg/kg/injection, schedule: Q01DX009 (ip), vehicle: saline with Tween-80) 104 % of control; (dose: 3.13 mg/kg/injection, schedule: Q01DX009 (ip), vehicle: saline with Tween-80) 110 % of control; (dose: 6.25 mg/kg/injection, schedule: Q01DX009 (ip), vehicle: saline with Tween-80) 109 % of control; (dose: 12.5 mg/kg/injection, schedule: Q01DX009 (ip), vehicle: saline with Tween-80) 93 % of control.
In the case of `CCC1OCC(C(Cl)CCl)O1` (configuration not stated), the T/C is, setting by setting: under setting [8], 90 % of control and 97 % of control; under setting [4], 88 % of control and 109 % of control; under setting [5], 86 % of control and 97 % of control; under setting [1], 94 % of control and 105 % of control; under setting [2], 89 % of control and 117 % of control; under setting [3], 105 % of control.
For `CCSCCC1(CCC(C)C)C(=O)NC(=Nc2ccccc2)NC1=O` (configuration not stated), the T/C reads like this: under setting [6], 91 % of control; under setting [7], 89 % of control; (dose: 400.0 mg/kg/injection, schedule: Q01DX009 (ip), vehicle: saline with Tween-80) 96 % of control.
